From ChEMBL document CHEMBL5506005, “Biochemical and structural characterization of chlorhexidine as an ATP-assisted inhibitor against type 1 methionyl-tRNA synthetase from Gram-positive bacteria” (Eur J Med Chem, 2024)
In brackets after ≈: the same amount, converted by molar mass. Activity calls are given as the source filed them. The calls are words filed in the database; no cut-off is given here.

What was measured:
[1] = target: Methionine--tRNA ligase (Staphylococcus aureus (strain Mu50 / ATCC 700699)) (UniProt P67578); experiment: Binding affinity to Staphylococcus aureus MetRS expressed in Escherichia coli BL21(DE3) cells assessed as change in entropy in presence of 500 uM ATP by ITC analysis
[2] = target: Methionine--tRNA ligase (Staphylococcus aureus (strain Mu50 / ATCC 700699)) (UniProt P67578); experiment: Binding affinity to Staphylococcus aureus MetRS expressed in Escherichia coli BL21(DE3) cells assessed as change in enthalpy in presence of ATP/L-Met by ITC analysis
[3] = target: T1, Methionine--tRNA ligase (Enterococcus faecalis) (UniProt A0A3N3ZFK4); experiment: Binding affinity to Enterococcus faecalis type 1 MetRS expressed in Escherichia coli BL21(DE3) cells assessed as change in enthalpy in presence of 1 mM ATP by ITC analysis
[4] = target: T1, Methionine--tRNA ligase (Enterococcus faecalis); experiment: Inhibition of Enterococcus faecalis type 1 MetRS expressed in Escherichia coli BL21(DE3) cells at 50 uM measured after 1.5 hrs by pre-transfer editing assay
[5] = target: Methionine--tRNA ligase (Staphylococcus aureus (strain Mu50 / ATCC 700699)) (UniProt P67578); experiment: Inhibition of Staphylococcus aureus type 1 MetRS expressed in Escherichia coli BL21(DE3) cells at 50 uM measured after 2.5 hrs by pre-transfer editing assay
[6] = target: Methionine--tRNA ligase (Staphylococcus aureus (strain Mu50 / ATCC 700699)) (UniProt P67578); experiment: Binding affinity to Staphylococcus aureus MetRS expressed in Escherichia coli BL21(DE3) cells assessed as increase in melting temperature incubated for 10 mins followed by heat treatment in presence of <3 mM AMP by SYPRO orange dye based TSA
[7] = target: T1, Methionine--tRNA ligase (Enterococcus faecalis); experiment: Binding affinity to Enterococcus faecalis type 1 MetRS expressed in Escherichia coli BL21(DE3) cells assessed as change in enthalpy by ITC analysis
[8] = target: Methionine--tRNA ligase (Staphylococcus aureus (strain Mu50 / ATCC 700699)) (UniProt P67578); experiment: Binding affinity to Staphylococcus aureus MetRS expressed in Escherichia coli BL21(DE3) cells assessed as change in Gibbs free energy in presence of 500 uM ATP by ITC analysis
[9] = target: Methionine--tRNA ligase (Staphylococcus aureus (strain Mu50 / ATCC 700699)) (UniProt P67578); experiment: Binding affinity to Staphylococcus aureus MetRS expressed in Escherichia coli BL21(DE3) cells assessed as change in entropy in presence of 50 uM ATP by ITC analysis
[10] = target: Methionine--tRNA ligase (Staphylococcus aureus (strain Mu50 / ATCC 700699)) (UniProt P67578); experiment: Binding affinity to Staphylococcus aureus MetRS expressed in Escherichia coli BL21(DE3) cells assessed as change in Gibbs free energy in presence of ATP/L-Met by ITC analysis
[11] = target: T1, Methionine--tRNA ligase (Enterococcus faecalis); experiment: Binding affinity to Enterococcus faecalis type 1 MetRS expressed in Escherichia coli BL21(DE3) cells assessed as change in entropy by ITC analysis
[12] = target: Methionine--tRNA ligase (Staphylococcus aureus (strain Mu50 / ATCC 700699)) (UniProt P67578); experiment: Binding affinity to Staphylococcus aureus MetRS expressed in Escherichia coli BL21(DE3) cells assessed as increase in melting temperature incubated for 10 mins followed by heat treatment in presence of 0.30 to 10 mM ADP by SYPRO orange dye based TSA
[13] = target: Methionine--tRNA ligase (Staphylococcus aureus (strain Mu50 / ATCC 700699)) (UniProt P67578); experiment: Binding affinity to Staphylococcus aureus MetRS expressed in Escherichia coli BL21(DE3) cells assessed as change in enthalpy in presence of 500 uM ATP by ITC analysis
[14] = target: Methionine--tRNA ligase (Staphylococcus aureus (strain Mu50 / ATCC 700699)) (UniProt P67578); experiment: Inhibition of Staphylococcus aureus MetRS expressed in Escherichia coli BL21(DE3) cells at 100 uM measured after 2.5 hrs in presence of ATP by pre-transfer editing assay relative to control
[15] = target: T1, Methionine--tRNA ligase (Enterococcus faecalis); experiment: Binding affinity to Enterococcus faecalis type 1 MetRS expressed in Escherichia coli BL21(DE3) cells assessed as change in Gibbs free energy by ITC analysis
[16] = target: T1, Methionine--tRNA ligase (Enterococcus faecalis); experiment: Binding affinity to Enterococcus faecalis type 1 MetRS expressed in Escherichia coli BL21(DE3) cells assessed as change in Gibbs free energy in presence of 1 mM ATP by ITC analysis
[17] = target: Methionine--tRNA ligase (Staphylococcus aureus (strain Mu50 / ATCC 700699)) (UniProt P67578); experiment: Binding affinity to Staphylococcus aureus MetRS expressed in Escherichia coli BL21(DE3) cells assessed as change in melting temperature at 100 uM incubated for 10 mins followed by heat treatment by SYPRO orange dye based TSA (reference value: 53.7 degreeC)
[18] = target: Methionine--tRNA ligase (Staphylococcus aureus (strain Mu50 / ATCC 700699)) (UniProt P67578); experiment: Binding affinity to Staphylococcus aureus MetRS expressed in Escherichia coli BL21(DE3) cells assessed as change in Gibbs free energy in presence of 20 uM ATP by ITC analysis
[19] = target: T1, Methionine--tRNA ligase (Enterococcus faecalis); experiment: Binding affinity to Enterococcus faecalis type 1 MetRS expressed in Escherichia coli BL21(DE3) cells assessed as change in entropy in presence of 1 mM ATP by ITC analysis
[20] = target: Methionine--tRNA ligase (Staphylococcus aureus (strain Mu50 / ATCC 700699)) (UniProt P67578); experiment: Binding affinity to Staphylococcus aureus MetRS expressed in Escherichia coli BL21(DE3) cells assessed as change in entropy in presence of 1 mM ATP by ITC analysis
[21] = target: Methionine--tRNA ligase (Staphylococcus aureus (strain Mu50 / ATCC 700699)) (UniProt P67578); experiment: Binding affinity to Staphylococcus aureus MetRS expressed in Escherichia coli BL21(DE3) cells assessed as change in entropy by ITC analysis
[22] = target: Methionine--tRNA ligase (Staphylococcus aureus (strain Mu50 / ATCC 700699)) (UniProt P67578); experiment: Binding affinity to Staphylococcus aureus MetRS expressed in Escherichia coli BL21(DE3) cells assessed as change in enthalpy in presence of 50 uM ATP by ITC analysis
[23] = target: Methionine--tRNA ligase (Staphylococcus aureus (strain Mu50 / ATCC 700699)) (UniProt P67578); experiment: Binding affinity to Staphylococcus aureus MetRS expressed in Escherichia coli BL21(DE3) cells assessed as increase in melting temperature incubated for 10 mins followed by heat treatment in presence of 0.30 to 10 mM ATP by SYPRO orange dye based TSA
[24] = target: Methionine--tRNA ligase (Staphylococcus aureus (strain Mu50 / ATCC 700699)) (UniProt P67578); experiment: Binding affinity to Staphylococcus aureus MetRS expressed in Escherichia coli BL21(DE3) cells assessed as change in enthalpy by ITC analysis
[25] = target: Methionine--tRNA ligase (Staphylococcus aureus (strain Mu50 / ATCC 700699)) (UniProt P67578); experiment: Binding affinity to Staphylococcus aureus MetRS expressed in Escherichia coli BL21(DE3) cells assessed as change in entropy in presence of ATP/L-Met by ITC analysis
[26] = target: Methionine--tRNA ligase (Staphylococcus aureus (strain Mu50 / ATCC 700699)) (UniProt P67578); experiment: Binding affinity to Staphylococcus aureus MetRS expressed in Escherichia coli BL21(DE3) cells assessed as change in enthalpy in presence of 20 uM ATP by ITC analysis
[27] = target: Methionine--tRNA ligase (Staphylococcus aureus (strain Mu50 / ATCC 700699)) (UniProt P67578); experiment: Binding affinity to Staphylococcus aureus MetRS expressed in Escherichia coli BL21(DE3) cells assessed as change in Gibbs free energy in presence of 50 uM ATP by ITC analysis
[28] = tested on: Staphylococcus aureus; experiment: Antibacterial activity against Staphylococcus aureus; format: functional
[29] = target: Methionine--tRNA ligase (Staphylococcus aureus (strain Mu50 / ATCC 700699)) (UniProt P67578); experiment: Binding affinity to Staphylococcus aureus MetRS expressed in Escherichia coli BL21(DE3) cells assessed as change in Gibbs free energy by ITC analysis
[30] = target: Methionine--tRNA ligase (Staphylococcus aureus (strain Mu50 / ATCC 700699)) (UniProt P67578); experiment: Binding affinity to Staphylococcus aureus MetRS expressed in Escherichia coli BL21(DE3) cells assessed as thermal stability by measuring change in melting temperature incubated for 10 mins followed by heat treatment in presence of 2 mM ATP by SYPRO orange dye based TSA
[31] = target: Methionine--tRNA ligase (Staphylococcus aureus (strain Mu50 / ATCC 700699)) (UniProt P67578); experiment: Binding affinity to Staphylococcus aureus MetRS expressed in Escherichia coli BL21(DE3) cells assessed as change in entropy in presence of 20 uM ATP by ITC analysis
[32] = target: Methionine--tRNA ligase (Staphylococcus aureus (strain Mu50 / ATCC 700699)) (UniProt P67578); experiment: Binding affinity to Staphylococcus aureus MetRS expressed in Escherichia coli BL21(DE3) cells assessed as change in enthalpy in presence of 1 mM ATP by ITC analysis
[33] = target: Methionine--tRNA ligase (Staphylococcus aureus (strain Mu50 / ATCC 700699)) (UniProt P67578); experiment: Binding affinity to Staphylococcus aureus MetRS expressed in Escherichia coli BL21(DE3) cells assessed as change in Gibbs free energy in presence of 1 mM ATP by ITC analysis
[34] = target: Methionine--tRNA ligase (Staphylococcus aureus (strain Mu50 / ATCC 700699)) (UniProt P67578); experiment: Binding affinity to Staphylococcus aureus MetRS expressed in Escherichia coli BL21(DE3) cells assessed as change in melting temperature at 100 uM incubated for 10 mins followed by heat treatment in presence of 2 mM ATP by SYPRO orange dye based TSA (reference value: 56.4 degreeC)

T1 sequence (A0A3N3ZFK4 as listed by the source): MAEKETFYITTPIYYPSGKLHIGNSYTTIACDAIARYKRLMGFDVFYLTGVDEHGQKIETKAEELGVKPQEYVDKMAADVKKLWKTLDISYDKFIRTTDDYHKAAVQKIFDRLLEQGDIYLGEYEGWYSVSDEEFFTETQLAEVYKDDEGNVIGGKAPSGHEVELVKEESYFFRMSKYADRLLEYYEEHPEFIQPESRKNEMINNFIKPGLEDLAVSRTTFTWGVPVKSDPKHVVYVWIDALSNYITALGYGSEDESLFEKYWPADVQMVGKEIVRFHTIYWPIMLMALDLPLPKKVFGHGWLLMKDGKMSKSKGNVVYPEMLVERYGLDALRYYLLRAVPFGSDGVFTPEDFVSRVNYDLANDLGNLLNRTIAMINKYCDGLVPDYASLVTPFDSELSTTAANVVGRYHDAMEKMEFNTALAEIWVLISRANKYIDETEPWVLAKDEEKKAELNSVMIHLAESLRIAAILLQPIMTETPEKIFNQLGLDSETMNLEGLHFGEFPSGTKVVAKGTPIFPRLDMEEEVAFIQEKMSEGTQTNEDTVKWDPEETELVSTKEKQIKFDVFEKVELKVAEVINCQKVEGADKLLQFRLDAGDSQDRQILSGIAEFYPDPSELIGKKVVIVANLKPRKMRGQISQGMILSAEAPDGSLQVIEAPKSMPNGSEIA
Methionine--tRNA ligase (Staphylococcus aureus (strain Mu50 / ATCC 700699)), sequence (P67578 whole entry): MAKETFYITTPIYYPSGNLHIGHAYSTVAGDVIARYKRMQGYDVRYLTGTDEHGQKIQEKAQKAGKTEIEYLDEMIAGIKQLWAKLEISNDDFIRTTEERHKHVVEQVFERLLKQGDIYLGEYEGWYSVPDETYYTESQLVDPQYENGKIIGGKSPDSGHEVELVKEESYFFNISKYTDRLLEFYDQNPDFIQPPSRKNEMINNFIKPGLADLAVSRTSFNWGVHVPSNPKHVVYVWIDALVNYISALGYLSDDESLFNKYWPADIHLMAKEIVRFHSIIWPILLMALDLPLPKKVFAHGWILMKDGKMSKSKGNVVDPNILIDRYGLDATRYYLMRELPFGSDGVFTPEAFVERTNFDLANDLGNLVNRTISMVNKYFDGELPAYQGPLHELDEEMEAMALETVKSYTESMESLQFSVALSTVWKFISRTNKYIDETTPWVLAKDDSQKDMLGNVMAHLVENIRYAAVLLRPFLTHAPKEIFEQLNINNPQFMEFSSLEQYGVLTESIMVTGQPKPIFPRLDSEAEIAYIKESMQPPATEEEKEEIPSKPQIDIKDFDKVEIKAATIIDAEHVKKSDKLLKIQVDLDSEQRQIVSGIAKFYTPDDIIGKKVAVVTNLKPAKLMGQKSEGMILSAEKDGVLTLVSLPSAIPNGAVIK

SMILES: N=C(NCCCCCCNC(=N)NC(=N)Nc1ccc(Cl)cc1)NC(=N)Nc1ccc(Cl)cc1 [CHLORHEXIDINE]
- -TdeltaS [1]: 4.43 kcal/mol
- deltaH [2]: -13.6 kcal/mol
- deltaH [3]: -7.31 kcal/mol
- inhibition [4]: Active
- inhibition [5]: Active
- Activity [6]: inactive
- deltaH [7]: -11.3 kcal/mol
- deltaG [8]: -8.5 kcal/mol
- -TdeltaS [9]: 10.7 kcal/mol
- deltaG [10]: -7.34 kcal/mol
- -TdeltaS [11]: 4.06 kcal/mol
- Activity [12]: Active
- deltaH [13]: -12.5 kcal/mol
- inhibition [14]: 78.3%
- deltaG [15]: -7.23 kcal/mol
- deltaG [16]: -8.91 kcal/mol
- ΔTm [17]: -3.4 °C
- deltaG [18]: -7.52 kcal/mol
- -TdeltaS [19]: -1.6 kcal/mol
- -TdeltaS [20]: 2.31 kcal/mol
- -TdeltaS [21]: 0.027 kcal/mol
- deltaH [22]: -18.8 kcal/mol
- Activity [23]: Active
- deltaH [24]: -5.95 kcal/mol
- -TdeltaS [25]: 6.23 kcal/mol
- deltaH [26]: -20 kcal/mol
- deltaG [27]: -8.07 kcal/mol
- MIC [28]: 0.25 µg/mL (≈ 0.495 µM)
- deltaG [29]: -6.81 kcal/mol
- ΔTm [30]: 7 °C
- -TdeltaS [31]: 13.8 kcal/mol
- deltaH [32]: -11 kcal/mol
- deltaG [33]: -8.66 kcal/mol
- ΔTm [34]: 7 °C
